This note sets out measurements from US20150051202A1, “TRIAZOLOPYRAZINE DERIVATIVES” (Merck Patent GmbH, priority 2012, published 2015).

One assay concerns the target GCN2 (Homo sapiens, UniProt Q9P2K8). As to the kind of experiment: GCN2 enzyme assay (TR-FRET Lanthascreen, GFP-eIF2alpha substrate). The class given is biochemical. An excerpt: GCN2: Assay Principle & Conditions
This assay can quantificate the activity of the serin kinase GCN2 (general control non-derepressible-2).
This kinase is involved in the stress metabolism of cells. It is activated upon starvation (amino acid depletion). Its natural substrate is eIF2a (eukaryotic initiation factor 2 alpha subunit), a translation factor, which gets activated (phosphorylated) by GCN2 in case of an amino acid bottleneck in the cells. This in turn leads to a halt of the protein synthesis. Inhibition of GCN2 results in stopping this mechanism: The cell can not stop protein production upon “starvation” stress.
The assay is run in two steps: the enzymatic reaction and the detection step. In the first step GCN2 is incubated with 10 μM ATP and 80 nM of the GFP-labelled substrate eIF2alpha at room temperature.
The enzymatic reaction is stopped by addition of EDTA. The amount of phosphorylated eIF2alpha is determined by TR-FRET (Lanthascreen): A complex is formed consisting of antibody and GFP labelled phospho-eIF2a, which allows a FRET upon exitation at 340 nm.
Final Concentrations in the Enzymatic Reaction • Hepes, pH 7.0 50 mM • MgCl2 10 mM • MnCl2 5 mM • BSA 0.1% • DMSO 1% • ATP 10 uM • DTT 2 mM • GFP-eIF2a 80 nM (substrate) • GCN2 30 nM (enzyme)

The target of another assay is T1, SYK (Homo sapiens, UniProt P43405).
T1 construct: purchased BPS Bioscience, CA, USA
Briefly: SYK enzyme assay (Flash plate assay / Caliper mobility shift assay). The class given is biochemical. The note with it: for SYK (enzyme assay) % at 3 μM: 100% corresponds to zero effect, −50% corresponds to IC50. The method, then:
The kinase assay is performed either as 384-well Flashplate assay (for e.g. Topcount measurement) or as 384-well Image-Flashplate assay (for LEADseeker measurement).
2.5 nM SYK, 400 nM Biotin-Aha-Aha-[…]
and 10 μM ATP (spiked with 0.3 μCi 33P-ATP/well) are incubated in a total volume of 50 μl (60 mM Hepes, 10 mM MgCl2, 1.2 mM Dithiothreitol, 0.02% Brij35, 0.1% BSA, pH 7.5) with or without test compound for 1 hours at 30° C. The reaction is stopped with 25 μl 200 mM EDTA. After 30 Min at 30° C. the liquid is removed and each well washed thrice with 100 μl 0.9% sodium chloride solution. Non-specific reaction is determined in presence of 0.1 μM Staurosporine. Radioactivity is measured with Topcount (when using Flashplates) or with LEADseeker (when using Image-Flashplates) respectively. Results (e.g. IC50-values) are calculated with program tools provided by the IT-department (e.g. Symyx Assay Explorer, Genedata Screener).
Enzymatic Assays Using the Caliper LifeSciences Technology
The assays described here are performed on the Caliper Life Sciences LC3000 system This technology provides data on enzyme activity via measurement of the relative amounts of phosphorylated or unphosphorylated fluorescently labelled substrate peptide at the end of an enzymatic reaction.
These different states of peptide are resolved by applying a potential difference across the sample. The presence of the charged phosphate group on the product (as opposed to the substrate) causes a different peptide mobility between the two peptides. This is visualized by excitation of the fluorescent label on the substrate and product peptides and represented as peaks within the analysis software.
In order to measure inhibitor activity of kinase inhibitors on this technology, a TTP Mosquito liquid handling instrument is used to place 0.25 ul of the appropriate concentration of inhibitor in 100% DMSO (for a dose response curve calculation) into each well of a 384-well plate. To this reaction components are added to a final volume of 25 ul. The table below indicates the sequences and concentrations for the assays described in this report. Standard components are 1 mM DTT (Sigma, D0632), 1 mM MgCl2 (Sigma, M1028), 100 mM HEPES pH 7.5 (Calbiochem, 391338), 0.015% Brij-35 (Sigma, B4184).
The reaction is incubated for 90 min at 25 C, and then stopped by the addition of 70 ul of Stop buffer (100 mM HEPES pH 7.5, 0.015% Brij-35, 10 mM EDTA (Sigma, E7889)).
The plate is read on a Caliper LC 3000 in an Off-Chip mobility shift assay format, on a 12-sipper chip. Unphosphorylated substrate and phosphorylated product peptide resolve as separate peaks allowing direct measurement of percentage of conversion of substrate to product. The percent conversion can be plotted against concentration of inhibitor to produce a sigmoidal dose response curve, from which an IC50 can be calculated using GeneData Condoseo or a similar product.

GCN2, sequence (Q9P2K8 whole entry): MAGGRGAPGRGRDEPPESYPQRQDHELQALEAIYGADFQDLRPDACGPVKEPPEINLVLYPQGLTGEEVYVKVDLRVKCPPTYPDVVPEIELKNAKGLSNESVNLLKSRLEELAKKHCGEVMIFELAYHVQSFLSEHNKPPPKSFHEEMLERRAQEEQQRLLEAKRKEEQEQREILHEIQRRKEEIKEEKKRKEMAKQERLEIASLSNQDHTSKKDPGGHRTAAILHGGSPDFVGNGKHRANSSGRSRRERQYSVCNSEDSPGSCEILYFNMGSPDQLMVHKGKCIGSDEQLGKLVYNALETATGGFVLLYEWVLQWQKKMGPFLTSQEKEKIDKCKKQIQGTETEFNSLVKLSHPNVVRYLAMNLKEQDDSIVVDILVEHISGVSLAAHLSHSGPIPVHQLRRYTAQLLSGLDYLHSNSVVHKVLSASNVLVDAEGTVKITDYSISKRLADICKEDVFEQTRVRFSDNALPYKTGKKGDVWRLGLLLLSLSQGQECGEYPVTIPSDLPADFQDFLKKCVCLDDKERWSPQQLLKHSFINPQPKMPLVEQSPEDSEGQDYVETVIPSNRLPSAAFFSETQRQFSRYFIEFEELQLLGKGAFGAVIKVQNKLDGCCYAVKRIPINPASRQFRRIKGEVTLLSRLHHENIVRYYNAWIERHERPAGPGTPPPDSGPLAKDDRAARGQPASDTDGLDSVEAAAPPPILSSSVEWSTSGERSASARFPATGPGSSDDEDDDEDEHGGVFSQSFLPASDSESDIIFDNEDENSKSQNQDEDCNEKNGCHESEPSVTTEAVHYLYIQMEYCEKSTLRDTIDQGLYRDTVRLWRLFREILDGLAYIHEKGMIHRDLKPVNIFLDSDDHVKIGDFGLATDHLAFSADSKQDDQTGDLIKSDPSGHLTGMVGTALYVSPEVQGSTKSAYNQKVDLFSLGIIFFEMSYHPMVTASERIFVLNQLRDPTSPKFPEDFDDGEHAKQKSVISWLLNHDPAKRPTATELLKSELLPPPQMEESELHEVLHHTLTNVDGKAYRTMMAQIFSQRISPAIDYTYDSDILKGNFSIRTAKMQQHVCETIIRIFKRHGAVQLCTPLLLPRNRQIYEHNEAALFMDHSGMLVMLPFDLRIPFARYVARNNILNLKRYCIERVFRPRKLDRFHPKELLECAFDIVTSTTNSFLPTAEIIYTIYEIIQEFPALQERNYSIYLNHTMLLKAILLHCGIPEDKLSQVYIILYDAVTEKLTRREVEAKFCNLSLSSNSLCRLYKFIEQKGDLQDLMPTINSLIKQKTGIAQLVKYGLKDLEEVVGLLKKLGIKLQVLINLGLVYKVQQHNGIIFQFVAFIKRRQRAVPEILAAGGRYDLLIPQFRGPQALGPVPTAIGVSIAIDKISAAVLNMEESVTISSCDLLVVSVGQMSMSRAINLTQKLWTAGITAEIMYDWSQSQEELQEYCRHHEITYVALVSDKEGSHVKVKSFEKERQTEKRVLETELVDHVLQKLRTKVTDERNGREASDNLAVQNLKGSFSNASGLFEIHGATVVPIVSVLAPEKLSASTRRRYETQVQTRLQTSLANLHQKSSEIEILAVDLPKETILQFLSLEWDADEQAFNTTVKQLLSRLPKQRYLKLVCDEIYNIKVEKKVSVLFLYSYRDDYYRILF

What is called IC50 is the concentration needed to halve the response being measured. Regarding `Cn1ncc2cc(-c3cncc4nc(Nc5cccnc5)nn34)ccc21` [Compound A3, [5-(1-methyl-1H-indazol-5-yl)-[1,2,4]triazolo[1,5-a]pyrazin-2-yl]-pyridin-3-yl-amine], at GCN2, the IC50 is 1 to 5 µM. Moreover, the “SYK (enzyme assay) % at 3 μM” value on SYK was −9@3%.

`COc1cc(Nc2nc3cncc(-c4cnn(CCC(C)C)c4)n3n2)ccc1N1CCN(C)CC1` [Compound A76, [3-methoxy-4-(4-methyl-piperazin-1-yl)-phenyl]-{5-[1-(3-methyl-butyl)-1H-pyrazol-4-yl]-[1,2,4]triazolo[1,5-a]pyrazin-2-yl}-amine]: the IC50 against GCN2 is below 1 µM; on SYK, 1 to 5 µM.

In the case of `Cn1cc(-c2cncc3nc(Nc4ccc5c(c4)NC(=O)C5(C)C)nn23)cn1` [Compound A13, 3,3-dimethyl-6-[5-(1-methyl-1H-pyrazol-4-yl)-[1,2,4]triazolo[1,5-a]pyrazin-2-ylamino]-1,3-dihydro-indol-2-one], the IC50 against GCN2 and on SYK was below 1 µM throughout.

Regarding `Cc1cc(Nc2nc3cncc(-c4cnn(C)c4)n3n2)ccc1CN1CCOCC1` [Compound A68, (3-methyl-4-morpholin-4-ylmethyl-phenyl)-[5-(1-methyl-1H-pyrazol-4-yl)-[1,2,4]triazolo[1,5-a]pyrazin-2-yl]-amine], the values for the IC50 on GCN2 and at SYK were below 1 µM and 1 to 5 µM, respectively.

In the case of `Cn1cc(-c2cncc3nc(Nc4cccc(C#N)c4)nn23)cn1` [Compound A57, 3-[5-(1-methyl-1H-pyrazol-4-yl)-[1,2,4]triazolo[1,5-a]pyrazin-2-ylamino]-benzonitrile], the IC50 on GCN2 was in the range of 1 to 5 µM; at SYK, 5 to 10 µM.

Regarding `COc1cc(Nc2nc3cncc(-c4cccc(NS(C)(=O)=O)c4)n3n2)ccc1N1CCN(C)CC1` [Compound A95, N-(3-{2-[3-methoxy-4-(4-methyl-piperazin-1-yl)-phenylamino]-[1,2,4]triazolo[1,5-a]pyrazin-5-yl}-phenyl)-methanesulfonamide], the IC50 on GCN2 is below 1 µM; on SYK, 1 to 5 µM.

Consider `COc1cc(Nc2nc3cncc(-c4cnn(C)c4)n3n2)ccc1NC(C)=O` [Compound A85, N-{2-methoxy-4-[5-(1-methyl-1H-pyrazol-4-yl)-[1,2,4]triazolo[1,5-a]pyrazin-2-ylamino]-phenyl}-acetamide], for which the values for the IC50 against GCN2 and on SYK were below 1 µM and 1 to 5 µM, respectively.

`COc1cc(Nc2nc3cncc(-c4cnn(C)c4)n3n2)ccc1NC(=O)C1CCOCC1` [Compound A89, tetrahydro-pyran-4-carboxylic acid {2-methoxy-4-[5-(1-methyl-1H-pyrazol-4-yl)-[1,2,4]triazolo[1,5-a]pyrazin-2-ylamino]-phenyl}-amide]: the IC50 was below 1 µM at GCN2 and 5 to 10 µM at SYK.

`N#Cc1cc(-c2cncc3nc(Nc4ccc(N5CCOCC5)cc4)nn23)ccc1OC1CCOCC1` [Compound A63, 5-[2-(4-morpholin-4-yl-phenylamino)-[1,2,4]triazolo[1,5-a]pyrazin-5-yl]-2-(tetrahydro-pyran-4-yloxy)-benzonitrile]: the IC50 against GCN2 fell in the range of 1 to 5 µM. Also, at SYK, the “SYK (enzyme assay) % at 3 μM” value is −30@3%.

In the case of `Cc1cc(Nc2nc3cncc(-c4cccc(NS(C)(=O)=O)c4)n3n2)ccc1N1CCN(C)CC1` [Compound A43, N-(3-(2-((3-methyl-4-(4-methylpiperazin-1-yl)phenyl)amino)-[1,2,4]triazolo[1,5-a]pyrazin-5-yl)phenyl)methanesulfonamide], at GCN2, the IC50 was below 1 µM.

At GCN2, `Fc1cccc(Nc2nc3cnc(Cl)cn3n2)c1` [Compound A19] yielded an IC50 of 1 to 5 µM.

At GCN2, `Cn1cc(-c2cncc3nc(Nc4ccc5c(c4)CC(=O)N5)nn23)cn1` [Compound A41, 5-[5-(1-methyl-1H-pyrazol-4-yl)-[1,2,4]triazolo[1,5-a]pyrazin-2-ylamino]-1,3-dihydro-indol-2-one] returned an IC50 below 1 µM.

The molecule `Cc1cc(Nc2nc3cncc(-c4cccc(C(N)=O)c4)n3n2)ccc1N1CCN(C)CC1` [Compound A54, 3-{2-[3-methyl-4-(4-methyl-piperazin-1-yl)-phenylamino]-[1,2,4]triazolo[1,5-a]pyrazin-5-yl}-benzamide] yielded a half-inhibitory concentration (IC50) at GCN2 of 1 to 5 µM.

Turning to `COc1cccc(Nc2nc3cnc(C)cn3n2)c1` [Compound A24, (3-methoxy-phenyl)-(6-methyl-[1,2,4]triazolo[1,5-a]pyrazin-2-yl)-amine], the “SYK (enzyme assay) % at 3 μM” value at SYK was 1@3%.

Turning to `CN1CCN(c2ccc(Nc3nc4cncc(-c5cnn(C)c5)n4n3)cn2)CC1` [Compound A90, [6-(4-methyl-piperazin-1-yl)-pyridin-3-yl]-[5-(1-methyl-1H-pyrazol-4-yl)-[1,2,4]triazolo[1,5-a]pyrazin-2-yl]-amine], at GCN2, the IC50 is below 1 µM.

For the molecule `Cc1cc(Nc2nc3cncc(-c4cnn(C)c4)n3n2)ccc1N1CCN(C)CC1` [Compound A42, 5-(1-methyl-1H-pyrazol-4-yl)-N-(3-methyl-4-(4-methylpiperazin-1-yl)phenyl)-[1,2,4]triazolo[1,5-a]pyrazin-2-amine], the IC50 on GCN2 is below 1 µM.

In the case of `Fc1ccc(Nc2nc3cnc(Cl)cn3n2)cc1` [Compound A21], the IC50 against GCN2 fell in the range of 1 to 5 µM.

Take `Fc1ccc(Nc2cn3nc(Nc4cccnc4)nc3cn2)cc1` [Compound A29, N6-(4-fluoro-phenyl)-N2-pyridin-3-yl-[1,2,4]triazolo[1,5-a]pyrazine-2,6-diamine]: at GCN2, the IC50 was in the range of 1 to 5 µM.

`Cn1ncc2cc(-c3cncc4nc(Nc5cccc(S(N)(=O)=O)c5)nn34)ccc21` [Compound A39, 3-[5-(1-methyl-1H-indazol-5-yl)-[1,2,4]triazolo[1,5-a]pyrazin-2-ylamino]-benzenesulfonamide] came in with an IC50 at GCN2 below 1 µM.

On to `Cn1ncc2cc(-c3cncc4nc(Nc5ccc6c(c5)CC(=O)N6)nn34)ccc21` [Compound A38, 5-[5-(1-methyl-1H-indazol-5-yl)-[1,2,4]triazolo[1,5-a]pyrazin-2-ylamino]-1,3-dihydro-indol-2-one], for which the IC50 at GCN2 is below 1 µM.

On GCN2, `c1cnc2ccc(-c3cncc4nc(Nc5ccc(N6CCOCC6)cc5)nn34)cc2c1` [Compound A33, (4-morpholin-4-yl-phenyl)-(5-quinolin-6-yl-[1,2,4]triazolo[1,5-a]pyrazin-2-yl)-amine] had a half-inhibitory concentration (IC50) of 1 to 5 µM.

Regarding `Cc1cc(Nc2nc3cncc(-c4ccc(C(C)(C)C#N)cc4)n3n2)ccc1N1CCN(C)CC1` [Compound A40, 2-methyl-2-(4-{2-[3-methyl-4-(4-methyl-piperazin-1-yl)-phenylamino]-[1,2,4]triazolo[1,5-a]pyrazin-5-yl}-phenyl)-propionitrile], at GCN2, the IC50 is below 1 µM.

As for `Cn1cc(-c2cncc3nc(Nc4cccnc4)nn23)cn1` [Compound A12, [5-(1-methyl-1H-pyrazol-4-yl)-[1,2,4]triazolo[1,5-a]pyrazin-2-yl]-pyridin-3-yl-amine], on GCN2, the IC50 is below 1 µM.

On to `CNS(=O)(=O)c1cccc(-c2cncc3nc(Nc4ccc(N5CCN(C)CC5)c(OC)c4)nn23)c1` [Compound A96, 3-{2-[3-methoxy-4-(4-methyl-piperazin-1-yl)-phenylamino]-[1,2,4]triazolo[1,5-a]pyrazin-5-yl}-N-methyl-benzenesulfonamide], for which, at GCN2, the IC50 was in the range of 1 to 5 µM.

At GCN2, `COc1cccc(Nc2nc3cnc(C#N)cn3n2)c1` [Compound A23] gave an IC50 of 1 to 5 µM.
